In one assay the test system is MCF7. The assay is described as follows: Antiproliferative activity against human MCF7 cells measured after 24 hrs by MTT assay. It is filed as functional, cell-based. The following applies: MCF7, 24 h. A general note: Tetrazolium dyes change colour on reduction, which living cells bring about.
The target of assay [1] is Clathrin heavy chain 1 (Homo sapiens) (UniProt Q00610). The assay is described as follows: Binding affinity to clathrin heavy chain 1 in human MCF7 cells at 20 to 40 uM measured after 2 hrs by DARTS assay. It is filed as cell-based.
For assay [2] the target is unchanged. Kind of assay: Modulation of clathrin heavy chain 1 in human PC3 cells assessed as effect on transferrin endocytosis at 5 to 25 uM pretreated for 15 mins followed by trasnferrin conjugate addition measured after 15 mins by laser scanning confocal microscopic analysis. It is filed as cell-based.
The next assay deals with PC-3. The assay is described as follows: Antiproliferative activity against human PC3 cells measured after 24 hrs by MTT assay. The following applies: PC-3, 24 h. The format is functional, cell-based.
Assay [3] addresses Clathrin heavy chain 1 (Homo sapiens) (UniProt Q00610). The assay is described as follows: Binding affinity to clathrin heavy chain 1 in human PC3 cells at 20 to 40 uM measured after 2 hrs by DARTS assay. It is filed as cell-based.
The target is the same in assay [4]. Kind of assay: Inhibition of clathrin heavy chain 1 in human PC3 cells assessed as suppression of transferrin internalization at 30 uM pretreated for 15 mins followed by trasnferrin conjugate addition measured after 15 mins by laser scanning confocal microscopic analysis. The format is cell-based.

pIC50: −log10 of the molar value. The source made the active and inactive calls. No cut-off for these calls is given here.

Chain of Clathrin heavy chain 1 (Homo sapiens) (Q00610 whole entry): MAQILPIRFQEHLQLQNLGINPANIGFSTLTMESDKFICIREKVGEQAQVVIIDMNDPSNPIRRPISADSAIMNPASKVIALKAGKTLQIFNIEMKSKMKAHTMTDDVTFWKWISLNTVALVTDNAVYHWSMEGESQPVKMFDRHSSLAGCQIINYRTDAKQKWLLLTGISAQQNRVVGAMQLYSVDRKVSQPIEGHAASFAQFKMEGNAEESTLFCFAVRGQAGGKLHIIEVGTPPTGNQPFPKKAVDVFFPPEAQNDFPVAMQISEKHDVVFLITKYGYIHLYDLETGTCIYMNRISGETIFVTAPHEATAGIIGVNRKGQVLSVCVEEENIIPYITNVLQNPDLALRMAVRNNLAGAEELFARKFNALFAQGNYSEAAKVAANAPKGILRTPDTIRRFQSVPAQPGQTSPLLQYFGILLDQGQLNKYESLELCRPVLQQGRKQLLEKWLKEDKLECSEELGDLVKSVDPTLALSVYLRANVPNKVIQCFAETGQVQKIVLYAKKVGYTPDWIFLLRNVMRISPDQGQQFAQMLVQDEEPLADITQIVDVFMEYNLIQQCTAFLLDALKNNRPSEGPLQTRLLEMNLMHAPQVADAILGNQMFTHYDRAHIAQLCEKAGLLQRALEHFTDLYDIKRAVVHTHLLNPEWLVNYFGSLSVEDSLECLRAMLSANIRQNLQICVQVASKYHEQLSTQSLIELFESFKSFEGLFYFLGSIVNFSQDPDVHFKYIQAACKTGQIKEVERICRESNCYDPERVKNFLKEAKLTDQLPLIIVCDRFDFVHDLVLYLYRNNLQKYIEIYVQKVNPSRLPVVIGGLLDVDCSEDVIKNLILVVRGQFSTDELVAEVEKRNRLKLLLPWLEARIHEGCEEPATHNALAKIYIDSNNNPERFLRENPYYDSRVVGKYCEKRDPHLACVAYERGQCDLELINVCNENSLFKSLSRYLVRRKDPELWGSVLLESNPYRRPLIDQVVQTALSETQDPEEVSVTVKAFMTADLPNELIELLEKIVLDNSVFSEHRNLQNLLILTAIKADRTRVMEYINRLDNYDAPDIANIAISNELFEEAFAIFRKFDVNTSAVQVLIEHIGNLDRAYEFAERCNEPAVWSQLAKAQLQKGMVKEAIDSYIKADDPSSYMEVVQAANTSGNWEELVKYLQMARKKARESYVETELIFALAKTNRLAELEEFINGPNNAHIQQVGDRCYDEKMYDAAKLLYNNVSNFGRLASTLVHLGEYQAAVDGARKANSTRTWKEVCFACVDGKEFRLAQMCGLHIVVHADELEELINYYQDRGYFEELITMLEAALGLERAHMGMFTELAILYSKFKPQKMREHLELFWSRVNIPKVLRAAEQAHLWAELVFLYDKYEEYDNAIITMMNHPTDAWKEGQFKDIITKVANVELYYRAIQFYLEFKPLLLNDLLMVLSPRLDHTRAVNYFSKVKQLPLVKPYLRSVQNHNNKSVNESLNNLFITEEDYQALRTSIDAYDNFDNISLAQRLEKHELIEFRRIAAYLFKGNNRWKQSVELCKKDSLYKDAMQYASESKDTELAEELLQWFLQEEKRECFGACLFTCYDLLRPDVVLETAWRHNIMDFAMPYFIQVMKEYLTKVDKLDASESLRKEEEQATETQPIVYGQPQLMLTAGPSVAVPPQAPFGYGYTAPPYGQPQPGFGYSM

The term pIC50 denotes −log10 of the IC50, conventionally taken in molar units. On to `C/C1=C/C2=C(C(=O)[C@H](C)C2)C(=O)[C@@H](C)C[C@@H]2[C@H](CC1)[C@@]2(C)CO[C@@H]1O[C@H](CO)[C@@H](O)[C@H](O)[C@H]1O`, for which the figures for the pIC50 in the assay with MCF7 and in the assay on PC-3 were 4.49 and 4.60, respectively. Further, the outcome in assay [1], in assay [2] and in assay [3] was Active.

On to `O=C1N=C(NS(=O)(=O)c2cccc3ccccc23)S/C1=C/c1ccc(Br)cc1`, for which, in assay [4], the inhibition entry is “Active”.

The values above are taken from ChEMBL document CHEMBL4041487, “Drug Affinity Responsive Target Stability (DARTS) Identifies Laurifolioside as a New Clathrin Heavy Chain Modulator” (J Nat Prod, 2016).
